# Tests used:
# [1] = biological target: T1, Tyrosine-protein phosphatase non-receptor type 1 (Homo sapiens, UniProt P18031); assay: Inhibition of protein tyrosine phosphatase 1B (PTP1B) activity in 3,6-fluorescein diphosphate (FDP) assay
# T1 sequence (P18031 whole entry): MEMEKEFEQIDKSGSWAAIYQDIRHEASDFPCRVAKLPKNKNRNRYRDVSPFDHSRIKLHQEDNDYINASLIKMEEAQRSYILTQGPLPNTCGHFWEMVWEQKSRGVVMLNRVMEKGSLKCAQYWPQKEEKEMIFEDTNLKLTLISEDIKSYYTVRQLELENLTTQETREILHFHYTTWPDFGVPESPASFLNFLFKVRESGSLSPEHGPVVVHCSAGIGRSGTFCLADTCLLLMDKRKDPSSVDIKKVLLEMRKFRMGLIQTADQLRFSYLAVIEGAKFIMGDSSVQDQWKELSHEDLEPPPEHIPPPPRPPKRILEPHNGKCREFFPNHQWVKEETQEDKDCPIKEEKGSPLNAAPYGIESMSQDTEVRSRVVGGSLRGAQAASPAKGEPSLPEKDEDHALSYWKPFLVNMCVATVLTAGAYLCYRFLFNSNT
# Rattus norvegicus [2] = organism: Rattus norvegicus; assay: Inhibition of protein tyrosine phosphatase (PTP) activity in rat liver endosome insulin receptor (IR) dephosphorylation assay at 0.1 mM
# Rattus norvegicus [3] = organism: Rattus norvegicus; assay: Inhibition of protein tyrosine phosphatase (PTP) activity in rat liver endosome insulin receptor (IR) dephosphorylation assay at 1 mM
# [4] = biological target: T1, Tyrosine-protein phosphatase non-receptor type 1; assay: Inhibition of protein tyrosine phosphatase 1B (PTP1B) activity in 3,6-fluorescein diphosphate (FDP) assay; NI= no inhibition
SMILES,IC50 [1] [µM],inhibition (Rattus norvegicus [2]) [%],inhibition (Rattus norvegicus [3]) [%],IC50 [4]
O=I(=O)c1c[nH]cn1,1050,22,43,
OO,,0,65,
O=C(O)c1cccc(I(=O)=O)c1,890,32,67,
O=I(=O)c1ccccc1,2650,0,88,
O=C1OI(=O)(O)c2ccccc21 (stereo not given),1160,36,98,
Cc1ccc(I(=O)=O)cc1,1510,6,47,
O=C1OI(O)c2ccccc21,,,10,Not Active
CC(=O)OI1(OC(C)=O)(OC(C)=O)OC(=O)c2ccccc21,130,50,69,
O=[N+]([O-])c1cccc(I(=O)=O)c1,1140,27,86,
O=P1(O)Oc2ccccc2I(=O)(O)O1 (stereo not given),350,17,,
CC(C)(C)OOI1OC(=O)c2ccccc21,230,48,78,
O=[N+]([O-])c1ccc(I(=O)=O)cc1,130,30,90,
O=I(=O)c1ccc(I(=O)=O)cc1,1410,,30,

# From ChEMBL document CHEMBL1131920, “Periodinates: a new class of protein tyrosine phosphatase inhibitors” (Bioorg Med Chem Lett, 1999)
